According to ChEMBL document CHEMBL3233010, “Design, synthesis and biological evaluation of novel 6-alkenylamides substituted of 4-anilinothieno[2,3-d]pyrimidines as irreversible epidermal growth factor receptor inhibitors” (Bioorg Med Chem, 2014):
Active and inactive are the calls of the source. The calls are words filed in the database; no cut-off is given here.

Legend:
[1] = biological target: T1, Epidermal growth factor receptor (Homo sapiens, UniProt P00533); test: Inhibition of wild type EGFR domain (unknown origin) expressed in baculovirus expression system using Poly(Glu:Tyr)4:1 substrate after 60 mins by ELISA
[2] = biological target: Epidermal growth factor receptor (Homo sapiens, UniProt P00533, L858R/T790M); test: Inhibition of EGFR T790M/L858R double mutant (unknown origin) expressed in baculovirus expression system using Poly(Glu:Tyr)4:1 substrate after 60 mins by ELISA
A-431 = test: Antiproliferative activity against human A431 cells assessed as growth inhibition after 72 hrs by SRB assay; format: functional, cell-based; conditions: A-431, 72 h
NCI-H1975 = test: Antiproliferative activity against gefitinib-resistant human NCI-H1975 cells assessed as growth inhibition after 72 hrs by SRB assay; format: functional, cell-based; conditions: NCI-H1975, 72 h
[3] = biological target: T1, Epidermal growth factor receptor; test: Inhibition of EGF-induced EGFR autophosphorylation in human A431 cells pretreated for 2 hrs followed by EGF challenge by Western blotting analysis; format: cell-based; conditions: A-431
[4] = biological target: T1, Epidermal growth factor receptor; test: Inhibition of EGF-induced EGFR autophosphorylation in human A431 cells at 0.1 umol/L pretreated for 2 hrs followed by EGF challenge by Western blotting analysis; format: cell-based; conditions: A-431
[5] = biological target: T1, Epidermal growth factor receptor; test: Inhibition of EGFR in human A431 cells assessed as inhibition of EGF-induced ERK1/2 phosphorylation at 0.1 to 1 umol/L pretreated for 2 hrs followed by EGF challenge by Western blotting analysis; format: cell-based; conditions: A-431
[6] = biological target: T1, Epidermal growth factor receptor; test: Inhibition of EGFR in human A431 cells assessed as inhibition of EGF-induced AKT phosphorylation at 0.1 to 1 umol/L pretreated for 2 hrs followed by EGF challenge by Western blotting analysis; format: cell-based; conditions: A-431
[7] = system: Epidermal growth factor receptor (Homo sapiens), P00533 [L858R,T790M]; test: Inhibition of EGF-induced EGFR T790M/L858R double mutant phosphorylation in human NCI-H1975 cells pretreated for 2 hrs followed by EGF challenge by Western blotting analysis; format: cell-based
[8] = system: Epidermal growth factor receptor (Homo sapiens), P00533 [L858R,T790M]; test: Inhibition of EGFR T790M/L858R double mutant in human NCI-H1975 cells assessed as inhibition of EGF-induced ERK1/2 phosphorylation pretreated for 2 hrs followed by EGF challenge by Western blotting analysis; format: cell-based
[9] = system: Epidermal growth factor receptor (Homo sapiens), P00533 [L858R,T790M]; test: Inhibition of EGFR T790M/L858R double mutant in human NCI-H1975 cells assessed as inhibition of EGF-induced AKT phosphorylation pretreated for 2 hrs followed by EGF challenge by Western blotting analysis; format: cell-based
[10] = biological target: Receptor tyrosine-protein kinase erbB-2 (Homo sapiens, UniProt P04626); test: Inhibition of ErbB2 (unknown origin) expressed in baculovirus expression system using Poly(Glu:Tyr)4:1 after 60 mins by ELISA
[11] = biological target: Receptor tyrosine-protein kinase erbB-4 (Homo sapiens, UniProt Q15303); test: Inhibition of recombinant ErbB4 (unknown origin) using Poly(Glu:Tyr)4:1 after 60 mins by ELISA
[12] = biological target: Proto-oncogene tyrosine-protein kinase receptor Ret (Homo sapiens, UniProt P07949); test: Inhibition of recombinant RET (unknown origin) using Poly(Glu:Tyr)4:1 after 60 mins by ELISA
[13] = biological target: Vascular endothelial growth factor receptor 1 (Homo sapiens, UniProt P17948); test: Inhibition of recombinant Flt-1 (unknown origin) using Poly(Glu:Tyr)4:1 after 60 mins by ELISA
[14] = biological target: Vascular endothelial growth factor receptor 2 (Homo sapiens, UniProt P35968); test: Inhibition of KDR (unknown origin) expressed in baculovirus expression system using Poly(Glu:Tyr)4:1 after 60 mins by ELISA
[15] = biological target: Mast/stem cell growth factor receptor Kit (Homo sapiens, UniProt P10721); test: Inhibition of recombinant c-Kit (unknown origin) using Poly(Glu:Tyr)4:1 after 60 mins by ELISA
[16] = biological target: Platelet-derived growth factor receptor alpha (Homo sapiens, UniProt P16234); test: Inhibition of recombinant PDGFRalpha (unknown origin) using Poly(Glu:Tyr)4:1 after 60 mins by ELISA
[17] = biological target: Platelet-derived growth factor receptor beta (Homo sapiens, UniProt P09619); test: Inhibition of recombinant PDGFRbeta (unknown origin) using Poly(Glu:Tyr)4:1 after 60 mins by ELISA
[18] = biological target: Tyrosine-protein kinase ABL1 (Homo sapiens, UniProt P00519); test: Inhibition of recombinant ABL (unknown origin) using Poly(Glu:Tyr)4:1 after 60 mins by ELISA
Ephrin type-A receptor 2 = Ephrin type-A receptor 2 (Homo sapiens, UniProt P29317); test: Inhibition of recombinant EPHA2 (unknown origin) using Poly(Glu:Tyr)4:1 after 60 mins by ELISA
[19] = biological target: Macrophage-stimulating protein receptor (Homo sapiens, UniProt Q04912); test: Inhibition of recombinant RON (unknown origin) using Poly(Glu:Tyr)4:1 after 60 mins by ELISA
[20] = biological target: Insulin-like growth factor 1 receptor (Homo sapiens, UniProt P08069); test: Inhibition of IGF1R (unknown origin) expressed in baculovirus expression system using Poly(Glu:Tyr)4:1 after 60 mins by ELISA
[21] = biological target: Fibroblast growth factor receptor 1 (Homo sapiens, UniProt P11362); test: Inhibition of FGFR1 (unknown origin) expressed in baculovirus expression system using Poly(Glu:Tyr)4:1 after 60 mins by ELISA
[22] = system: Epidermal growth factor receptor (Homo sapiens), P00533 [L858R,T790M]; test: Inhibition of EGF-induced EGFR T790M/L858R double mutant phosphorylation in human NCI-H1975 cells at 0.1 umol/L pretreated for 2 hrs followed by EGF challenge by Western blotting analysis; format: cell-based

Epidermal growth factor receptor (Homo sapiens), P00533 [L858R,T790M], sequence (P00533 whole entry T790M/L858R, looked up): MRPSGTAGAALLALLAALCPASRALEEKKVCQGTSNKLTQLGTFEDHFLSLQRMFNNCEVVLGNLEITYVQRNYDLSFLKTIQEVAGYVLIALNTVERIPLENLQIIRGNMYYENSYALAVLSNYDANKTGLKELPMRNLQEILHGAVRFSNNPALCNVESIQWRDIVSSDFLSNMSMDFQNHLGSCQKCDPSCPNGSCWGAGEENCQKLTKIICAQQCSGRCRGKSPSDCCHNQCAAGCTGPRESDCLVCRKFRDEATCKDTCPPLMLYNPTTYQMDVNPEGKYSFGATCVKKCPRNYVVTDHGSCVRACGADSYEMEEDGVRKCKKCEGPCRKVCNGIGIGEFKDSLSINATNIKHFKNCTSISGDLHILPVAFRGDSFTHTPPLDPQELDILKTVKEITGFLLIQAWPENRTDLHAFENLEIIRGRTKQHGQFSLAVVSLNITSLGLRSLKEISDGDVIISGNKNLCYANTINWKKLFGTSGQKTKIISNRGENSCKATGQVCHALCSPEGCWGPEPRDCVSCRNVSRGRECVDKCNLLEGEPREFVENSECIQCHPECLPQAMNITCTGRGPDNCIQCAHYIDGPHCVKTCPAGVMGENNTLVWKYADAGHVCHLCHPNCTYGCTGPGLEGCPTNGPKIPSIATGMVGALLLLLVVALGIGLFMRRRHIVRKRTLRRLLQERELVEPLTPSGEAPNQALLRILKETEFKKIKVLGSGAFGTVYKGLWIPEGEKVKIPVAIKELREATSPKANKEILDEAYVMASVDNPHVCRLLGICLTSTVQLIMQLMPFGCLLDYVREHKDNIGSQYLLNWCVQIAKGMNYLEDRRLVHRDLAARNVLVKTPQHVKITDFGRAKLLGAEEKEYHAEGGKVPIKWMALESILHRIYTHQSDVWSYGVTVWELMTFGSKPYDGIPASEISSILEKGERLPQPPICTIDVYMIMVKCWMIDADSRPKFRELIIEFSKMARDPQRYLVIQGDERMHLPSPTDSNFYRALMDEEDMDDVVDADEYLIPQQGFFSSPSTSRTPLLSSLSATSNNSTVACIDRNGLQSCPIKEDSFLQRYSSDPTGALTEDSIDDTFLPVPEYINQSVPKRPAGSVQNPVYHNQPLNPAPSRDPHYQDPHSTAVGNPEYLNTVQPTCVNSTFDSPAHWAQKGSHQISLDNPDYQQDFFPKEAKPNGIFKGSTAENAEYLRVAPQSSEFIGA
T1 sequence (P00533 whole entry, the tested form may be a part): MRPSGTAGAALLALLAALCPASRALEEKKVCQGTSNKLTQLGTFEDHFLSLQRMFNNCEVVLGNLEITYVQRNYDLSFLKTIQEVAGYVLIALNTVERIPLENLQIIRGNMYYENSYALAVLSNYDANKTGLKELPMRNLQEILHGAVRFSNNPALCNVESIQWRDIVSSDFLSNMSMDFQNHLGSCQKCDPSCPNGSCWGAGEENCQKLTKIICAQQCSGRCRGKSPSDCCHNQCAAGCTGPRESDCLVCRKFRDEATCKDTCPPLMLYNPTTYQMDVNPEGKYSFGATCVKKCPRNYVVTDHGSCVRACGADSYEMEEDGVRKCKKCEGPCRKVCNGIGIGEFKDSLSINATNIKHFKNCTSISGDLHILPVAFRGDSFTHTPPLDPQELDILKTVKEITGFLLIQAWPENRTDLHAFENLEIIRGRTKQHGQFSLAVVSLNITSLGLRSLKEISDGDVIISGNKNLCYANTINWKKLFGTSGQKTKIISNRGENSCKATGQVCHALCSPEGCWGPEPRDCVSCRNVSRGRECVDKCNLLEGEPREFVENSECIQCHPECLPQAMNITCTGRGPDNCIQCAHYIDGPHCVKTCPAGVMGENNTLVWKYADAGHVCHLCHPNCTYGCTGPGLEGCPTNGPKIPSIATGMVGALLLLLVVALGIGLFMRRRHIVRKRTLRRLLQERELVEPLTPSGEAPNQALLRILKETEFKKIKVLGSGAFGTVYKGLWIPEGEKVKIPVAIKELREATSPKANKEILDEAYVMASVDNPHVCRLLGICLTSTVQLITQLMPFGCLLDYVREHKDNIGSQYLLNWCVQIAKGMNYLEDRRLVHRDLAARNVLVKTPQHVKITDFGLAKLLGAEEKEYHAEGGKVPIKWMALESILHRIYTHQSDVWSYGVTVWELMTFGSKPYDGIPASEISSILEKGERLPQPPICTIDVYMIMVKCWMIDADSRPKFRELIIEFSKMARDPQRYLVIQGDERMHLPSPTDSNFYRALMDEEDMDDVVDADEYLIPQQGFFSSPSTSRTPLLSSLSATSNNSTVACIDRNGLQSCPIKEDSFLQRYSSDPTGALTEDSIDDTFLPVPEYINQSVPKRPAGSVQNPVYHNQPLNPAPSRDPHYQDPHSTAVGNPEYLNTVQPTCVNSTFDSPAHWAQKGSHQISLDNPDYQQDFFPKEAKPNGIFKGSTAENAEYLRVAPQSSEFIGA
Epidermal growth factor receptor (Homo sapiens, UniProt P00533, L858R/T790M), sequence (P00533 25-1210 T790M/L858R limits assumed): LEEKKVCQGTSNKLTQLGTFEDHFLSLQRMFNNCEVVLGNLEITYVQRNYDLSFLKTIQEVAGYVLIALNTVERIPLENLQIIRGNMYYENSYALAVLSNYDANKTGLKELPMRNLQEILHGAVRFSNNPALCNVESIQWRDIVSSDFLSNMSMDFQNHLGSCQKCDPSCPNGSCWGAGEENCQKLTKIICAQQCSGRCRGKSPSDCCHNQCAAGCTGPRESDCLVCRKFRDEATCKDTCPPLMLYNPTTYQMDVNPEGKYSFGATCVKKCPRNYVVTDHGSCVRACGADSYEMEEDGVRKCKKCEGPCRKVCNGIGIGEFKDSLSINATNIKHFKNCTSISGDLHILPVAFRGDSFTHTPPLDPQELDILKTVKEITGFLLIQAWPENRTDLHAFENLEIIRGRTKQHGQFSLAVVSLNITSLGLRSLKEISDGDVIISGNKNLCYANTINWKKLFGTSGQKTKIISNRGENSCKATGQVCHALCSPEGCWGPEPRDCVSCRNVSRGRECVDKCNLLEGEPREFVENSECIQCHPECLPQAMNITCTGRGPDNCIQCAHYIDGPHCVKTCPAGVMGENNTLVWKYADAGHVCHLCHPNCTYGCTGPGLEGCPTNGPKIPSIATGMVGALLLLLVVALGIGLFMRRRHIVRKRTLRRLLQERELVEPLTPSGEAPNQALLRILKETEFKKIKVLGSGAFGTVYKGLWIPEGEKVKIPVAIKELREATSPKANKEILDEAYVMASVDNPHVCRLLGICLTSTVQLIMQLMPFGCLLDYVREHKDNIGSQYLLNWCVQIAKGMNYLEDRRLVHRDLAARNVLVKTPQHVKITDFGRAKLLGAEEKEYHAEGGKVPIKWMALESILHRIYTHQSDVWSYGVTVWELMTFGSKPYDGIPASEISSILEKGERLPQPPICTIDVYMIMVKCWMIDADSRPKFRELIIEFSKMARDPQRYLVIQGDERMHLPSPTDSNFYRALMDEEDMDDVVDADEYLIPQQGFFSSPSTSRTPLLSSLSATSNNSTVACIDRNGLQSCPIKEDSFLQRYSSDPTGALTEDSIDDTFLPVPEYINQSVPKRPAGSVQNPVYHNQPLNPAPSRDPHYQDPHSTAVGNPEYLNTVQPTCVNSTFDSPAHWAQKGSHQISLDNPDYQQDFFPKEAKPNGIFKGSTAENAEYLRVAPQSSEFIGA
Receptor tyrosine-protein kinase erbB-4, sequence (Q15303 whole entry): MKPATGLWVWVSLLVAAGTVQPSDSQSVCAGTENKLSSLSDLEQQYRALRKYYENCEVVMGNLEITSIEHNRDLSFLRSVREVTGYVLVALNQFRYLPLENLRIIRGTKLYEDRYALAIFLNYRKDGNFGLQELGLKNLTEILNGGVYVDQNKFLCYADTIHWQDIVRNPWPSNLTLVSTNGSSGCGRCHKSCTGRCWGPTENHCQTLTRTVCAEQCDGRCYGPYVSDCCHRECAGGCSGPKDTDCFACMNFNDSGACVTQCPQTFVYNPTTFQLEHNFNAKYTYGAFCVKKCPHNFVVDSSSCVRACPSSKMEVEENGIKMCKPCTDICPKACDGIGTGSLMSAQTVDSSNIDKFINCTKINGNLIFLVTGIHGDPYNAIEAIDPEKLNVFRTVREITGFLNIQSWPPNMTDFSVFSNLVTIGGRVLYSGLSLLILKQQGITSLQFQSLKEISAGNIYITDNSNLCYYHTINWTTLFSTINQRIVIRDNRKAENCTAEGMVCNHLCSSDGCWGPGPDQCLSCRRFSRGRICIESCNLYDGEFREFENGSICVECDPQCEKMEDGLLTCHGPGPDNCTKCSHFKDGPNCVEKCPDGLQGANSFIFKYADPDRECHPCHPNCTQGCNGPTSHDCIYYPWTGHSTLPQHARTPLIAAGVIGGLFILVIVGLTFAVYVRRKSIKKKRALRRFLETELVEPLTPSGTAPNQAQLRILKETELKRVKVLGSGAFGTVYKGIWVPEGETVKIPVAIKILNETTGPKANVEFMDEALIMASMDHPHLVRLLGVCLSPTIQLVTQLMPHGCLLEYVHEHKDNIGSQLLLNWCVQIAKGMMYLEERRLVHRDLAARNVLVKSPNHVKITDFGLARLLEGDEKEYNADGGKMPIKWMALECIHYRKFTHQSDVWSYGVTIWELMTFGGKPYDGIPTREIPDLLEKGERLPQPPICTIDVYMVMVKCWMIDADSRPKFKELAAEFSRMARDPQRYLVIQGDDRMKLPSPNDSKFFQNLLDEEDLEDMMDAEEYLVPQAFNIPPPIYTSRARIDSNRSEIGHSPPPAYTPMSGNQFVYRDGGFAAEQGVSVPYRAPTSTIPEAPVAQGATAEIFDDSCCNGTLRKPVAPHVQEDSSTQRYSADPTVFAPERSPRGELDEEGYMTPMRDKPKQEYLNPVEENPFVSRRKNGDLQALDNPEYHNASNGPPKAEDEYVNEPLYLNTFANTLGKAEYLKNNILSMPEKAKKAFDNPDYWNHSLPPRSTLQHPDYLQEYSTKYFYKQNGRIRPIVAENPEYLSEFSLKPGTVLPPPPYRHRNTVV

Compound: O=C(/C=C/CN1CC2CCC1C(=O)C2)Nc1cc2c(Nc3ccc(F)c(Cl)c3)ncnc2s1 (centres undefined)
- IC50 [1]: 0.9 nM
- IC50 [2]: 4 nM
- IC50 (A-431): 1540 nM
- IC50 (NCI-H1975): 12000 nM
- inhibition [3]: Dose-dependent effect
- inhibition [4]: Active
- inhibition [5]: Active
- inhibition [6]: Active
- inhibition [7]: Dose-dependent effect
- inhibition [8]: Dose-dependent effect
- inhibition [9]: Dose-dependent effect
- IC50 [10]: 30 nM
- IC50 [11]: 37 nM
- IC50 [12]: > 10000 nM
- IC50 [13]: > 10000 nM
- IC50 [14]: > 10000 nM
- IC50 [15]: > 10000 nM
- IC50 [16]: > 10000 nM
- IC50 [17]: > 10000 nM
- IC50 [18]: > 10000 nM
- IC50 (Ephrin type-A receptor 2): > 10000 nM
- IC50 [19]: > 10000 nM
- IC50 [20]: > 10000 nM
- IC50 [21]: > 10000 nM

Compound: C=CC(=O)Nc1cc2c(Nc3ccc(F)c(Cl)c3)ncnc2s1
- IC50 [1]: 16 nM
- IC50 [2]: 24 nM
- IC50 (A-431): 730 nM
- IC50 (NCI-H1975): 3000 nM
- inhibition [3]: Dose-dependent effect
- inhibition [4]: Active
- inhibition [5]: Active
- inhibition [6]: Active
- inhibition [7]: Dose-dependent effect
- inhibition [8]: Dose-dependent effect
- inhibition [9]: Dose-dependent effect
- inhibition [22]: Active
- IC50 [10]: 40 nM
- IC50 [11]: 4 nM
- IC50 [12]: 1630 nM
- IC50 [13]: > 10000 nM
- IC50 [14]: > 10000 nM
- IC50 [15]: > 10000 nM
- IC50 [16]: > 10000 nM
- IC50 [17]: > 10000 nM
- IC50 [18]: > 10000 nM
- IC50 (Ephrin type-A receptor 2): > 10000 nM
- IC50 [19]: > 10000 nM
- IC50 [20]: > 10000 nM
- IC50 [21]: > 10000 nM
